Tests used:
Assay type in all cases: functional
[1] = tested on: Mus musculus; assay: Percent of tumor growth inhibition ratio (TGIR)of the compound administered intravenously at dose 100 ug/kg(on day 7, 11,15) in subcutaneously infected BDF1 mice on day 11
[2] = tested on: Mus musculus; assay: Percent of tumor growth inhibition ratio (TGIR)of the compound administered intravenously at dose 100 ug/kg(on day 7, 11,15) in subcutaneously infected BDF1 mice on day 14
[3] = tested on: Mus musculus; assay: Percent of tumor growth inhibition ratio (TGIR)of the compound administered intravenously at dose 100 ug/kg(on day 7, 11,15) in subcutaneously infected BDF1 mice on day 18
[4] = tested on: Mus musculus; assay: Percent of tumor growth inhibition ratio (TGIR)of the compound administered intravenously at dose 100 ug/kg(on day 7, 11,15) in subcutaneously infected BDF1 mice on day 22
[5] = species on record: Mus musculus; assay: Evaluated for lymphocyte proliferation stimulatory effect in BALB/c mice and percent control of [3H]TdR incorporation at dose 100 ng/ml using allogenic mixed lymphocyte reaction (MLR)
[6] = species on record: Mus musculus; assay: Evaluated for lymphocyte proliferation stimulatory effect in BALB/c mice and percent control of [3H]TdR incorporation using allogenic mixed lymphocyte reaction (MLR) at a dose 1 ng/ml
[7] = species on record: Mus musculus; assay: Evaluated for lymphocyte proliferation stimulatory effect in BALB/c mice and percent control of [3H]-TdR incorporation using allogenic mixed lymphocyte reaction (MLR) at a dose 10 ng/ml
[8] = tested on: Mus musculus; assay: Evaluated for life span prolonging effects against female BDF1 mice infected intraperitoneally 1x10E6 P388 cells on day 0 at intravenous dose 0.1 mg/kg on day 1,5,9
[9] = tested on: Mus musculus; assay: Evaluated for life span prolonging effects against female BDF1 mice infected intraperitoneally 1x10E6 murine melanoma B16 cells on day 0 at dose of 0.1 mg/kg; conditions: route intraperitoneal
[10] = tested on: Mus musculus; assay: Evaluated for life span prolonging effects against female BDF1 mice infected intraperitoneally 1x10E6 murine melanoma B16 cells on day 0 at dose of 1 mg/kg; conditions: route intraperitoneal

Compound | TGIR [1] [%] | TGIR [2] [%] | TGIR [3] [%] | TGIR [4] [%] | Control [5] [%] | Control [6] [%] | Control [7] [%] | Survival [8] [days] | T/C [8] [%] | Survival [9] [days] | T/C [9] [%] | Survival [10] [days] | T/C [10] [%]
CCCCCCCCCCCCCC(=O)N[C@@H](CO[C@H]1O[C@@H](CO)[C@H](O)[C@H](O)[C@@H]1O)[C@H](O)CCCCCCCCCCCCC | 76.5 | 66.6 | 66.4 | 67.9 |  |  |  |  |  |  |  |  | 
CCCCCCCCCCCCCC(=O)N[C@@H](CO[C@H]1O[C@@H](CO)[C@H](O)[C@H](O)[C@@H]1O)[C@@H](O)CCCCCCCCCCCCC |  | 4.9 | 8.5 | 13.1 |  |  |  |  |  |  |  |  | 
CCCCCCCCCCCCCCCCCCCCCCCCCC(=O)N[C@@H](CO[C@H]1O[C@@H](CO)[C@H](O)[C@H](O)[C@@H]1O)[C@H](O)[C@H](O)CCCCCCCCCCCCCC | 16.1 | 17.2 | 20.3 | -3.8 |  |  |  |  |  |  |  |  | 
CCCCCCCCCCCCCCCCCCCCCC[C@@H](O)C(=O)N[C@@H](CO[C@H]1O[C@@H](CO)[C@H](O)[C@H](O)[C@@H]1O)[C@H](O)[C@H](O)CCCCCCCCCCCC |  |  |  |  | 350 | 253 | 258 | 11 | 106 | 26.8 | 145 | 31.5 | 170
CCCCCCCCCCCCCCCCCCCCCCC[C@@H](O)C(=O)N[C@@H](CO[C@H]1O[C@@H](CO)[C@H](O)[C@H](O)[C@@H]1O)[C@H](O)[C@H](O)CCCCCCCCCCCC(C)CC (some centres not stated) |  |  |  |  | 319 | 233 | 281 | 11.2 | 108 | 28 | 151 | 32 | 173
CCCCCCCCCCCCCCCCCCCCCCCCCC(=O)N[C@@H](CO[C@H]1O[C@H](CO)[C@H](O)[C@H](O)[C@H]1O)[C@H](O)[C@H](O)CCCCCCCCCCCCCC [RGI-7000] | 41.1 | 50.9 | 51.1 | 40.2 |  |  |  |  |  |  |  |  | 
CCCCCCCCCCCCCC(=O)N[C@H](CO[C@H]1O[C@@H](CO)[C@H](O)[C@H](O)[C@@H]1O)[C@H](O)CCCCCCCCCCCCC |  | 13 | 11 | 5.1 |  |  |  |  |  |  |  |  | 
CCCCCCCCCCCCCCCCCCCCCC[C@@H](O)C(=O)N[C@@H](CO[C@H]1O[C@@H](CO)[C@H](O)[C@H](O)[C@@H]1O)[C@H](O)[C@H](O)CCCCCCCCCCCC(C)C |  |  |  |  | 236 | 184 | 220 | 11.3 | 109 | 27.6 | 149 | 27 | 146
CCCCCCCCCCCCCC(=O)N[C@H](CO[C@H]1O[C@@H](CO)[C@H](O)[C@H](O)[C@@H]1O)[C@@H](O)CCCCCCCCCCCCC | 55.9 | 52.6 | 42.2 | 40.1 |  |  |  |  |  |  |  |  | 
CCCCCCCCCCCCCCCCCCCCCC[C@@H](O)C(=O)N[C@@H](CO[C@H]1O[C@@H](CO)[C@H](O)[C@H](O)[C@@H]1O)[C@H](O)[C@H](O)CCCCCCCCCCCC(C)CC (some centres not stated) |  |  |  |  | 255 | 179 | 209 | 11.2 | 108 | 28.2 | 152 | 34.5 | 187
CCCCCCC/C=C/C(C)=C/CC/C=C/[C@@H](O)[C@H](CO[C@H]1O[C@@H](CO)[C@H](O)[C@H](O)[C@@H]1O)NC(=O)[C@H](O)CCCCCCCCCCCCCCCCCCCCCC |  |  |  |  | 169 | 142 | 134 | 11.3 | 109 | 21.3 | 115 | 23.7 | 127

— ChEMBL document CHEMBL1128864, “Antitumor activities of -, -monogalactosylceramides and four diastereomers of an -galactosylceramide” (1995)
